For the assay, the target named is Coagulation factor XI (Homo sapiens, UniProt P03951).
Sequence of Coagulation factor XI (P03951 19-387 limits assumed): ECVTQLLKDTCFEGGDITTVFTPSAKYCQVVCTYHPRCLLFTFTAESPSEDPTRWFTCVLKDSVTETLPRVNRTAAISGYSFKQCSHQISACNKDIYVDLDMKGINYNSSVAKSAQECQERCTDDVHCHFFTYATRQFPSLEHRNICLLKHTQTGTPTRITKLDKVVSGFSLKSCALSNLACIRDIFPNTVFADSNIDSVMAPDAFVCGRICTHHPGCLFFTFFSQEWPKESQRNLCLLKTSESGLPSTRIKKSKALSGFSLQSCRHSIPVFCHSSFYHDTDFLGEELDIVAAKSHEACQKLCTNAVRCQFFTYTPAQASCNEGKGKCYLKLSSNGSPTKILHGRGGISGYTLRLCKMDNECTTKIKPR
Sequence of Coagulation factor XI (P03951 388-625 limits assumed): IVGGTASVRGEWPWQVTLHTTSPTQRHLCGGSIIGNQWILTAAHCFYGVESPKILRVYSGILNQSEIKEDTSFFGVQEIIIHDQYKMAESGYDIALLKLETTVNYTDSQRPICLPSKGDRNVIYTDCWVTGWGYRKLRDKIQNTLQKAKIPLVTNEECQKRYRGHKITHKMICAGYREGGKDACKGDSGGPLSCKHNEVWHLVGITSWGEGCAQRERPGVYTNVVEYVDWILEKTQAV
The term IC50 denotes the concentration that inhibits the measured activity by half. Low readings indicate inhibition by little substance, high ones a need for much substance. As to `N=C(N)NCCC[C@H](NS(=O)(=O)c1ccc2ccccc2c1)C(=O)c1nccs1`, it took 86 µM to reach half-maximal inhibition (IC50).
`CC(C)[C@H](CC(=O)NCc1ccc(Cl)c(Cl)c1)C(=O)N[C@@H](CCCN=C(N)N)C(=O)c1nccs1` yielded a half-maximal inhibitory concentration (IC50) of 6.22 µM.
On to `NC(N)=NCCC[C@H](NC(=O)Cc1ccc(Cl)c(Cl)c1)C(=O)c1nccs1`, for which the concentration for half-maximal inhibition (IC50) was 37.9 µM.
On to `CC(C)[C@H](NC(=O)N[C@@H]1C[C@@H]2C[C@H]([C@H]1C)C2(C)C)C(=O)N[C@@H](CCCN=C(N)N)C(=O)c1nccs1`, for which the IC50 is 0.713 µM.
In the case of `CC(C)[C@H](NC(=O)N[C@H]1C[C@H]2C[C@@H]([C@@H]1C)C2(C)C)C(=O)N[C@@H](CCCN=C(N)N)C(=O)c1nccs1`, the midpoint of inhibition, the IC50, lay at 3.31 µM.
The figure for `N=C(N)NCCC[C@H](NS(=O)(=O)c1cccc2ccccc12)C(=O)c1nccs1` is 250 µM; for `N=C(N)NCCC[C@H](NC(=O)c1cc(F)cc2c1OCOC2)C(=O)c1nccs1` it is 5.9 µM.
Take `CC(C)[C@H](NC(=O)[C@H](O)c1cccc(F)c1)C(=O)N[C@@H](CCCN=C(N)N)C(=O)c1nccs1`: the IC50 was 0.956 µM.
To `NC(N)=NCCC[C@H](NC(=O)c1cccc2ccccc12)C(=O)c1nccs1` belongs 2.25 µM.
`CC(C)[C@H](NC(=O)NCc1ccc(Cl)c(Cl)c1)C(=O)N[C@@H](CCCN=C(N)N)C(=O)c1nccs1` returned a concentration for half-maximal inhibition (IC50) of 0.48 µM.
`NC(N)=NCCC[C@H](NC(=O)Cc1cccc2ccccc12)C(=O)c1nccs1` yielded an IC50 of more than 250 µM.
`CC(C)CC(=O)N[C@@H](CCCN=C(N)N)C(=O)c1nccs1` showed an IC50 of 123 µM.
The figure for `N=C(N)NCCC[C@H](NC(=O)c1ccc2ccccc2c1)C(=O)c1nccs1` is more than 200 µM.
In turn, `CC(C)[C@H](NC(=O)[C@H](O)c1cccc(Cl)c1)C(=O)N[C@@H](CCCN=C(N)N)C(=O)c1nccs1` registered an IC50 of 0.116 µM.
